Laboratory results as given in ChEMBL document CHEMBL1150948, “Tolyporphins J and K, two further porphinoid metabolites from the cyanobacterium Tolypothrix nodosa” (J Nat Prod, 1998).
Activity calls are given as the source filed them. The rule behind the calls is not given here.

How the values were obtained:
[1] = biological target: ATP-dependent translocase ABCB1 (Homo sapiens, UniProt P08183); assay: Inhibition of P-glycoprotein in human MCF7/ADR cells assessed as increase in [3H]vinblastine accumulation; assay type: cell-based; settings: nci/adr-res
NCI/ADR-RES [2] = assay: Cytotoxicity against human MCF7/ADR cells for 60 mins by trypan blue staining; assay type: functional, cell-based
NCI/ADR-RES [3] = assay: Reversal of P-glycoprotein-mediated multidrug resistance in human MCF7/ADR cells assessed as sensitization to actinomycin D after 48 hrs by SRB assay; assay type: cell-based

Chain of ATP-dependent translocase ABCB1 (P08183 whole entry): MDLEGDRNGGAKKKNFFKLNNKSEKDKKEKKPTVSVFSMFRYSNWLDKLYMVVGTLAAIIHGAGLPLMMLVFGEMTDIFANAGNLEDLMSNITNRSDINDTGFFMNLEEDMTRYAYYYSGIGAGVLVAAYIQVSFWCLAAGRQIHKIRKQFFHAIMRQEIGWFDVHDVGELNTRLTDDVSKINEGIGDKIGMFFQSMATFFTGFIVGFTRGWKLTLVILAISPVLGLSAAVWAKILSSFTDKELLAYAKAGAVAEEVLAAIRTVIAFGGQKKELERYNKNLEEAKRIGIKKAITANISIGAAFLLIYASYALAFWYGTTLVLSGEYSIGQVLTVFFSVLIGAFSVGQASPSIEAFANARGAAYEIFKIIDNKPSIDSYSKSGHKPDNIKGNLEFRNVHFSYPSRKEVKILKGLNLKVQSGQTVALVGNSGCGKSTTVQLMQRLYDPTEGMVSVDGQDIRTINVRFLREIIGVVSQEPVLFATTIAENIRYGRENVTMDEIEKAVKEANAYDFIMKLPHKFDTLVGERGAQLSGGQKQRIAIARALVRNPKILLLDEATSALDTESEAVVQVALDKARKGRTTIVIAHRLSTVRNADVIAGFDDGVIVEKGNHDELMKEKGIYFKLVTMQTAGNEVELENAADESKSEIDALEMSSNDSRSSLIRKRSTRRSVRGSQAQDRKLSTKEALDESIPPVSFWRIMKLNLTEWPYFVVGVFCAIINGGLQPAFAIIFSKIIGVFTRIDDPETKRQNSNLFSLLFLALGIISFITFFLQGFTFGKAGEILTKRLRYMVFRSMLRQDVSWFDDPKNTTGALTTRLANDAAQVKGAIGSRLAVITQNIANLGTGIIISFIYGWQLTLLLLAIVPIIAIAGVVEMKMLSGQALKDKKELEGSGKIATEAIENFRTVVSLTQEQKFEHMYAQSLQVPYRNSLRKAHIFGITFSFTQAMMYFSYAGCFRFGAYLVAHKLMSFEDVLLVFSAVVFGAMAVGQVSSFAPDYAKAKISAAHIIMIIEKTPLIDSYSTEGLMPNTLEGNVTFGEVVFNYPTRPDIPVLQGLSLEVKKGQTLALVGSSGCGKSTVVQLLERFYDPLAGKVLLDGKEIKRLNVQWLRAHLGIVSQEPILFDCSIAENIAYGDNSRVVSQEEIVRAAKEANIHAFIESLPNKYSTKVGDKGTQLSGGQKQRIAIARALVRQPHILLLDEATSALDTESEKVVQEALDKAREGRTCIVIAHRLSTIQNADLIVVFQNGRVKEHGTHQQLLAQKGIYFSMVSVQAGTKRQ

Compound	Activity [1]	Activity (NCI/ADR-RES [2])	Activity (NCI/ADR-RES [3])
Cc1cc2cc3nc(cc4cc(C)c(cc5nc(cc1[nH]2)C(=O)C5(C)O)[nH]4)C(=O)C3(C)O (stereo unspecified) [TOLYPORPHIN J]	Dose-dependent effect	inactive	Active
CC(=O)O[C@@H]1C[C@@H](O)[C@@H](C)OC1[C@]1(C)C(=O)c2cc3cc(C)c(cc4nc(cc5[nH]c(cc1n2)cc5C)C(=O)[C@@]4(C)C1O[C@H](C)[C@H](O)C[C@H]1OC(C)=O)[nH]3 (stereo partly specified) [TOLYPORPHIN A]	Dose-dependent effect	inactive	Active
